Measured values: US4748153A, “Compounds having somatostatin-like activity useful as local anti-inflammatory agents” (Merck & Co., Inc., priority 1987, dated 1988)
Residues, ends and D or L forms follow the SMILES beside them.

Tests used:
[1] = system: cellular proliferation (granuloma); assay: Pellet granuloma assay, compound applied locally to subcutaneously implanted pellets (Assays 1, 2, 4); format: in vivo, rats (Charles River-CD); settings: for Body Wt. Change: Assay 2; for Granulosimer Net weight: Assay 1, six animals per group, 7 days, ± 2 S.E. of mean
Experimental: The assay method employed to test the Formula I, II, III, IV and V compounds as local anti-inflammatory agents is a modification of the method described by S. L. Steelman, et al. [Steroids, 1, 163 (1963)] as follows:
(§1) Male rats (Charles River-CD) of about 150-160 grams in weight were subcutaneously implanted in the abdominal area with two pellets each. Five animals were used per group. The pellets used were preweighed and all used in a given assay were ±1 mg from one another. The compounds were dissolved in absolute ethanol and the indicated dose applied to each pellet in 0.2 ml. The alcohol was removed in vacuo overnight. Just prior to implantation, each pellet was moistened with 0.2 ml of 0.9% saline containing 1 mg each of penicillin and streptomycin. After seven days, the pellets were dissected out together with adhering granulomatous tissue. After drying in a vacuum oven overnight at 60°-65° C., the pellets were weighed. The difference in weight between the original pellet weight and the implanted pellet weight was used as a measure of cellular proliferation (granuloma). The lower the net weight, the more anti-inflammatory activity.
Following the procedure of the Assay Method described above, somatostatin (SRIF) was tested for its anti-inflammatory activity. The structure of somatostatin is: [drawing 5]
Six animals per group were used in this test and the results obtained are shown in Table I below wherein hydrocortisone was used as a positive control:
The results obtained following the Assay Method described above using Compound 8 of Formula I are shown below in Table II wherein hydrocortisone was used as a positive control.
(§2) Following the same procedure as described above for Assay 1, additional compounds were tested for local; i.e., topical, anti-inflammatory activity. […] In Table IV, the potency of each compound tested relative to that of somatostatin is also shown, the somatostatin (SRIF) potency being assigned a value of 1 and based upon its inhibition of growth hormone, insulin and glucogen secretion.

[2] = system: cellular proliferation (granuloma); assay: Pellet granuloma assay, compounds administered subcutaneously as saline injections (Assay 3); format: in vivo, rats (Charles River-CD)
Experimental: as §1
Following the procedure described above for Assau 1, additional tests were conducted except that the compounds were administered subcutaneously as saline injections. The tests were carried out on six animals per group and the results obtained are shown below in Table III.

[3] = system: inhibition of growth hormone, insulin and glucogen secretion; assay: Potency relative to somatostatin (SRIF); settings: SRIF assigned a value of 1, based upon inhibition of growth hormone
Experimental: as §2

[4] = administered subcutaneously, Table III

## C[C@]12CCC(=O)C=C1CC[C@@H]1[C@@H]2[C@@H](O)C[C@@]2(C)[C@H]1CC[C@]2(O)C(=O)CO [Hydrocortisone, hydrocortisone]
[1]; 200 mcg/pellet
  Body Wt. Change: +44 gm
[1]; 300 mcg/pellet
  Granulosimer Net weight: 24 ± 2 mg
[1]; 1000 mcg/pellet
  Body Wt. Change: +41 gm
[2]; [4]
  activity (in words): typical activity

## C[C@H](N)C(=O)NCC(=O)N[C@H]1CSSC[C@@H](C(=O)O)NC(=O)[C@H](CO)NC(=O)[C@H]([C@@H](C)O)NC(=O)[C@H](Cc2ccccc2)NC(=O)[C@H]([C@@H](C)O)NC(=O)[C@H](CCCCN)NC(=O)[C@H](Cc2c[nH]c3ccccc23)NC(=O)[C@H](Cc2ccccc2)NC(=O)[C@H](Cc2ccccc2)NC(=O)[C@H](CC(N)=O)NC(=O)[C@H](CCCCN)NC1=O [SRIF, somatostatin]
[1]; 1500 mcg/pellet
  Granulosimer Net weight: 25 ± 1 mg
[1]; Assay 1, Table I, on pellet
  anti-inflammatory activity (in words): effective anti-inflammatory agent
[3]
  Potency Relative to Somatostatin (SRIF): 1

## C[C@@H](O)[C@@H]1NC(=O)[C@H](CCCCN)NC(=O)[C@@H](Cc2c[nH]c3ccccc23)NC(=O)[C@H](Cc2ccccc2)NC(=O)[C@@H]2CCCN2C(=O)[C@H](Cc2ccccc2)NC1=O [13/II, Cyclo-(Pro-Phe-D-Trp-Lys-Thr-Phe)] (HELM PEPTIDE1{P.F.[dW].K.T.F}$PEPTIDE1,PEPTIDE1,1:R1-6:R2$$$V2.0)
[3]
  Potency Relative to Somatostatin (SRIF): 6

## CC(C)[C@@H]1NC(=O)[C@H](CCCCN)NC(=O)[C@H](Cc2c[nH]c3ccccc23)NC(=O)[C@H](Cc2ccc(O)cc2)NC(=O)[C@H](C)N(C)C(=O)[C@H](Cc2ccccc2)NC1=O [10/I, Cyclo-(N-Me-Ala-Tyr-L-Trp-Lys-Val-Phe)]
[3]
  Potency Relative to Somatostatin (SRIF): 50

## CC(C)[C@@H]1NC(=O)[C@H](CCCCN)NC(=O)[C@@H](Cc2c[nH]c3ccccc23)NC(=O)[C@H](Cc2ccc(O)cc2)NC(=O)[C@H](C)N(C)C(=O)[C@H](Cc2c[nH]c3ccccc23)NC1=O [9/I, Cyclo-(N-Me-Ala-Tyr-D-Trp-Lys-Val-Trp)] (HELM PEPTIDE1{K.V.W.[meA].Y.[dW]}$PEPTIDE1,PEPTIDE1,1:R1-6:R2$$$V2.0)
[3]
  Potency Relative to Somatostatin (SRIF): 20-35

## CC(C)[C@@H]1NC(=O)[C@H](CCCCN)NC(=O)[C@@H](Cc2c[nH]c3ccccc23)NC(=O)[C@H](Cc2ccc(O)cc2)NC(=O)[C@H](C)N(C)C(=O)[C@H](Cc2ccccc2)NC1=O [Compound 8 of Formula I, Cyclo-(N-Me-Ala-Tyr-D-Trp-Lys-Val-Phe)]
[1]; 10 mcg/pellet
  Body Wt. Change: +43 gm
[1]; 100 mcg/pellet
  Body Wt. Change: +40 gm
[1]; doses of 100-200 micrograms per pellet, Table II
  anti-inflammatory activity (in words): significant activity
[2]; [4]
  effect on adrenal weight (in words): slight decrease in the adrenal weight
[2]; administered systemically, i.e., subcutaneously
  anti-inflammatory activity (in words): no anti-inflammatory activity
[2]; daily dose 200 mcg subcutaneously, ± S.E. of mean
  Avg. Adrenal wt.: 36 ± 2 mg
[3]
  Potency Relative to Somatostatin (SRIF): 50-100

## C[C@@H]1NC(=O)[C@H](CO)NC(=O)[C@H](CCCCN)NC(=O)[C@@H](Cc2c[nH]c3ccccc23)NC(=O)[C@H](Cc2c[nH]cn2)NC(=O)[C@H](Cc2ccccc2)N(C)C1=O [11/I, Cyclo-(Ser-Ala-N-Me-Phe-His-D-Trp-Lys)] (HELM PEPTIDE1{A.[meF].H.[dW].K.S}$PEPTIDE1,PEPTIDE1,1:R1-6:R2$$$V2.0)
[3]
  Potency Relative to Somatostatin (SRIF): 200
